tested on: V79 (Chinese Hamster Lung Fibroblasts) cells; assay: In vitro cytotoxicity assay (light EC50, Alamar blue); type: cell-based; settings: Table 3 porphyrins, 24 h drug incubation, 532 nm, 1.25 J/cm^2, read-out: In Vitro EC50 Light
Description: The in vitro biological evaluation of photosensitizers for their ability to photosensitize cells was performed using standard procedures. Using 5% FBS/DMEM phenol-free media, wells (180 μl/well) were plated with 5×10^4 V79 (Chinese Hamster Lung Fibroblasts) cells/ml into two 96 well plates. Plate 1 was light-treated and plate 2 served as a control. The plates were Incubated at 37° C., 5% CO2 for 3-5 hours. Standard solutions of the photosensitizers were dissolved in pre-filtered Dimethyl Sulfoxide (DMSO). Drug was diluted in 5% FBS DMEM phenol free medium. Final drug concentrations for light and dark experiments were 0.01, 0.1, 1.0, 3.0 and 5.0 μM. Twenty microliters of each concentration were added to six replicate wells to the light and dark plate. The plates were wrapped in aluminum foil to avoid photoactivation and mixed in a gyratory shaker for approximately 2 minutes. Both plates were incubated for 24 hours at 37° C., 5% CO2. After a 24 hour incubation, drug-containing media was aspirated from the plates. Each well was rinsed with 180 μl Hepes buffer salt solution (HBSS) then aspirated to remove the HBSS. 180 μl of fresh media were added (5% FBS/DMEM phenol-free) to each well. […] Plate 2 was not light treated. Immediately after light treatment, 20 μl Alamar blue was added to each well in plate 1. Alamar blue was added to plate 2 immediately after fresh media was added. The plates were mixed on a gyratory shaker for 5 min.
Both plates were incubated under dark conditions for 24 hours at 37° C., 5% CO2. After 24 hour incubation, the plates were read on a plate reader spectrophotometer (Spectra Max 250) at wavelengths 570 and 600 nm. and the percentage of cell survival recorded.

Structure (SMILES)	EC50 [nM]
CNC(=O)CCC1=C(C)C2=Cc3cc(C)c4[n]3[Ga-2]35([Cl])[n]6c(c(C)c(CCC(=O)NC)c6=CC1=[N+]23)=CC1=[N+]5C(=C4)C=C1C [Example 6, Gallium Chloride Deuteroporphyrin Methylamide]	4050
CCC1=C(C)C2=[N+]3C1=Cc1c(C)c(CC)c4[n]1[Ga-2]31([Cl])[n]3c(c(C)c(CCC(=O)NCCOCCO)c3=CC3=[N+]1C(=C4)C(C)=C3CCC(=O)NCCOCCO)=C2 [Example 16, Gallium Chloride Mesoporphyrin 2-ethoxyethanol amide]	2900
CCC1=C(C)C2=[N+]3C1=Cc1c(C)c(CC)c4[n]1[Al-2]31([Cl])[n]3c(c(C)c(CCC(=O)NC)c3=CC3=[N+]1C(=C4)C(C)=C3CCC(=O)NC)=C2 [Example 61, Aluminum Chloride Mesoporphyrin N-methylamide]	2000
CCC1=C(C)C2=[N+]3C1=Cc1c(C)c(CC)c4[n]1[Pt-2]31[n]3c(c(C)c(CCC(=O)NCCOC)c3=CC3=[N+]1C(=C4)C(C)=C3CCC(=O)NCCOC)=C2 (stereo not shown) [Example 65, Platinum Mesoporphyrin di(2-methoxyethylamide)]	50
CCC1=C(C)c2cc3[n-]c(cc4nc(cc5[n-]c(cc1n2)c(C)c5CC)C(C)=C4CCC(=O)NCCCO)c(CCC(=O)NCCCO)c3C.[Pt+2] [Example 67, Platinum Mesoporphyrin di(3-hydroxypropylamide)]	100
CC1=CC2=Cc3c(C)cc4[n]3[Ga-2]35([Cl])[n]6c(c(C)c(CCC(=O)NCCCO)c6=CC6=[N+]3C(=C4)C(C)=C6CCC(=O)NCCCO)=CC1=[N+]25 [Example 68, Gallium Chloride Deuteroporphyrin di(3-hydroxypropylamide)]	3000
CCOP(=O)(CCCC1=C(C)c2cc3cc(C)c(cc4nc(cc5[n-]c(cc1n2)c(CCCP(=O)(OCC)OCC)c5C)C(C)=C4)[n-]3)OCC.[Cl-].[Ga+3] [Example 80, Gallium Chloride 3,7,12,17-tetramethylporphyrin-2,18-di((3′-diethylphosphono)propyl)]	2000
CCC1=C(C)C2=Cc3c(CC)c(C)c4[n]3[Ga-2]35([Cl])[n]6c(c(C)c(CCCOCCOC)c6=CC6=[N+]3C(=C4)C(C)=C6CCCOCCOC)=CC1=[N+]25 [M=Ga R1=Et R3=Me R4=Et R2=CH2O(CH2)2OCH3]	430
CCC1=C(C)C2=Cc3c(CC)c(C)c4[n]3[Ga-2]35([Cl])[n]6c(c(C)c(CCCOCCO)c6=CC6=[N+]3C(=C4)C(C)=C6CCCOCCO)=CC1=[N+]25 [M=Ga R1=Et R3=Me R4=Et R2=CH2O(CH2)2OH]	500

same assay, conditions: Table 4 azaporphyrins, 575 nm (Pt azaporphyrins 532 nm), 1.25 J/cm^2, read-out: In Vitro EC(50)

Structure (SMILES)	EC50 [nM]
COC(=O)CCC1=C(C)C2=Cc3c(C)c(C(C)OC)c4[n]3[Ga-2]35([Cl])[n]6c(c(C)c(CCC(=O)OC)c6=CC1=[N+]23)=CC1=[N+]5C(=N4)C(C)=C1C(C)OC (mixture of isomers) [M=Ga R1,R3=Me R2,R4=CH(OMe)CH3 R=CO2Me]	1000
CCC1=C(C)c2nc1cc1[n-]c(cc3nc(cc4[n-]c(n2)c(C)c4CCC(=O)OC)C(CCC(=O)OC)=C3C)c(CC)c1C.[Cl-].[Ga+3] [Example 20, Gallium Chloride 5-azamesoporphyrin IX Dimethyl Ester]	400
CCC1=C(CC)C2=[N+]3C1=Nc1c(CC)c(CC)c4[n]1[Pt-2]31[n]3c(c(C)c(CCC(=O)OC)c3=CC3=[N+]1C(=C4)C(C)=C3CCC(=O)OC)=C2 (stereo not shown) [Example 85, Platinum 7,8,12,13-tetraethyl-12,17-dimethyl-10-azaporphyrin-2,18-di(propionic acid methyl ester)]	4000
CCC1=C(CC)C2=[N+]3C1=Nc1c(CC)c(CC)c4[n]1[Pt-2]31[n]3c(c(C)c(CCC(=O)O)c3=CC3=[N+]1C(=C4)C(C)=C3CCC(=O)O)=C2.[K+].[K+] (stereo not shown) [Example 86, Platinum 7,8,12,13-tetraethyl-12,17-dimethyl-10-azaporphyrin-2,18-di(propionic acid Potassium Salt)]	400
CCC1=C(CC)C2=[N+]3C1=Nc1c(CC)c(CC)c4[n]1[Ga-2]31([OH])[n]3c(c(C)c(CCC(=O)O)c3=CC3=[N+]1C(=C4)C(C)=C3CCC(=O)O)=C2.[Na+].[Na+] [Example 88, Gallium Hydroxy 7,8,12,13-tetraethyl-12,17-dimethyl-10-azaporphyrin-2,18-di(propionic acid Sodium Salt)]	500
CCC1=C(CC)C2=Nc3c(CC)c(CC)c4[n]3[Pt][n]3c(c(C)c(CCC(=O)NC)c3=CC3=NC(=C4)C(C)=C3CCC(=O)NC)=CC1=N2 [Example 92, Platinum 7,8,12,13-tetraethyl-12,17-dimethyl-10-azaporphyrin-2,18-di(propionic acid methyl amide)]	2300
CCC1=C(CC)C2=Nc3c(CC)c(CC)c4[n]3[Al]([Cl])[n]3c(c(C)c(CCC(=O)NC)c3=CC3=NC(=C4)C(C)=C3CCC(=O)NC)=CC1=N2 [Example 93, Aluminum Chloride 7,8,12,13-tetraethyl-12,17-dimethyl-10-azaporphyrin-2,18-di(propionic acid methyl amide)]	100
CCC1=C(C)C2=NC1=Nc1c(C)c(CC)c3[n]1[Ga]([Cl])[n]1c(c(C)c(CCC(=O)NC)c1=CC1=NC(=C3)C(C)=C1CCC(=O)NC)=C2 [Example 94, Gallium Chloride 5-aza-mesoporphyrin IX Dimethyl Amide]	520
CCC1=C(CC)C2=Nc3c(CC)c(CC)c4[n]3[Ga]([Cl])[n]3c(c(C)c(CCC(=O)NCCOC)c3=CC3=NC(=C4)C(C)=C3CCC(=O)NCCOC)=CC1=N2 [Example 95, Gallium Chloride 7,8,12,13-tetraethyl-12,17-dimethyl-10-azaporphyrin-2,18-di(propionic acid 2′-methoxyethyl amide)]	2000
CCC1=C(CC)C2=Nc3c(CC)c(CC)c4[n]3[Pt][n]3c(c(C)c(CCC(=O)NCCOC)c3=CC3=NC(=C4)C(C)=C3CCC(=O)NCCOC)=CC1=N2 [Example 96, Platinum 7,8,12,13-tetraethyl-12,17-dimethyl-10-azaporphyrin-2,18-di(propionic acid-2′-methoxyethyl amide)]	1900
CCC1=C(CC)C2=Nc3c(CC)c(CC)c4[n]3[Pt][n]3c(c(C)c(CCC(=O)NCCCO)c3=CC3=NC(=C4)C(C)=C3CCC(=O)NCCCO)=CC1=N2 [Example 98, Platinum 7,8,12,13-tetraethyl-12,17-dimethyl-10-azaporphyrin-2,18-di(propionic acid-3′-hydroxypropyl amide amide)]	2000
CCC1=C(C)c2nc1cc1[n-]c(cc3nc(cc4[n-]c(n2)c(C)c4CCC(=O)NCCCO)C(CCC(=O)NCCCO)=C3C)c(CC)c1C.[Cl-].[Ga+3] [Example 99, Gallium Chloride 5-azamesoporphyrin IX di(3′-hydroxypropyl amide)]	500
CCC1=C(CC)C2=Nc3c(CC)c(CC)c4[n]3[Ga]([Cl])[n]3c(c(C)c(CCC(=O)NCCOCCO)c3=CC3=NC(=C4)C(C)=C3CCC(=O)NCCOCCO)=CC1=N2 [Example 100, Gallium Chloride 7,8,12,13-tetraethyl-12,17-dimethyl-10-azaporphyrin-2,18-di(propionic acid-2-ethoxyethanol amide)]	1300
CCC1=C(CC)C2=Nc3c(CC)c(CC)c4[n]3[Pt][n]3c(c(C)c(CCC(=O)NCCOCCO)c3=CC3=NC(=C4)C(C)=C3CCC(=O)NCCOCCO)=CC1=N2 [Example 101, Platinum 7,8,12,13-tetraethyl-12,17-dimethyl-10-azaporphyrin-2,18-di(propionic acid-2-ethoxyethanol amide)]	1500
CCC1=C(CC)C2=Nc3c(CC)c(CC)c4[n]3[Pt][n]3c(c(C)c(CCC(=O)NCCN(C)C)c3=CC3=NC(=C4)C(C)=C3CCC(=O)NCCN(C)C)=CC1=N2 [Example 103, Platinum 7,8,12,13-tetraethyl-12,17-dimethyl-10-azaporphyrin-2,18-di(propionic acid-2′-N,N-dimethylaminoethyl amide)]	1200
CCC1=C(CC)C2=Nc3c(CC)c(CC)c4[n]3[In]([Cl])[n]3c(c(C)c(CCCO)c3=CC3=NC(=C4)C(C)=C3CCCO)=CC1=N2 [Example 104, Indium Chloride 7,8,12,13-tetraethyl-12,17-dimethyl-10-azaporphyrin-2,18-di(3′-hyroxypropyl)]	30
CCC1=C(CC)C2=Nc3c(CC)c(CC)c4[n]3[Pt][n]3c(c(C)c(CCCO)c3=CC3=NC(=C4)C(C)=C3CCCO)=CC1=N2 [Example 105, Platinum 7,8,12,13-tetraethyl-12,17-dimethyl-10-azaporphyrin-2,18-di(3′-hyroxypropyl)]	40
CCC1=C(CC)c2nc1cc1[n-]c(cc3nc(cc4[n-]c(n2)c(CC)c4CC)C(C)=C3CCCOC)c(CCCOC)c1C.[Cl-].[Ga+3] [Example 106, Gallium Chloride 7,8,12,13-tetraethyl-12,17-dimethyl-10-azaporphyrin-2,18-di(3′-methoxypropyl)]	1000

same assay, conditions: light EC50, metallodiazaporphyrins, read-out: In Vitro EC(50)

Structure (SMILES)	EC50 [nM]
CCC1=C(CC)C2=[N+]3C1=Nc1c(CC)c(CC)c4[n]1[Ga-2]31([Cl])[n]3c(c(CC)c(CC)c3=C2c2ccc(OC)cc2)=NC2=[N+]1C(=C4c1ccc(OC)cc1)C(CC)=C2CC [M=Ga, R1=Et, R2=Et, R3=p-(C6H4)OCH3]	600
